# Reference: patent US8536132B2, “Lymphatic zip codes in tumors and pre-malignant lesions” (Sanford-Burnham Medical Research Institute, priority 2006, dated 2013)
# “Also recorded” adds a separate entry of the source. Marks after values point to notes of the source that are not given here.
# Tests used:
# KRIB xenografts = assay: In vivo phage homing to KRIB xenografts; parameters: species or system mouse
# Protocol: (§1) The following cell lines were maintained in DMEM supplemented with 10% FCS: C8161 human melanoma, MDA-MB-435 human breast cancer, KRIB human osteosarcoma, and human prostate cancer cells PPC1, DU145. LNCaP human prostate cancer cell line was grown in RPMI 1640 medium with 10 mM HEPES, 1 mM sodium pyruvate and 1.5 g/L sodium bicarbonate supplemented with 10% FCS. M12 human prostate cancer cell line was cultured in RPMI 1640 with 5 μg/ml insulin-transferrin-sodium selenite (ITS), 2.5 μg/ml fungizone, 50 μg/ml gentamycin, 0.2 μM dexamethasone, 10 ng/ml epidermal growth factor (EGF), and 5% FCS (Bae et al., 1998). To produce tumors, nude BALB/c and C56BL/6 mice were subcutaneously (C8161, KRIB, and PPC1) or orthotopically ([…], PPC1, DU145, M12, and LNCaP) injected with 1×10^6 tumor cells. Transgenic mouse tumor models included TRAMP prostate cancer, MMTV-PyMT breast cancer, and K14-HPV16 cervical cancer. To initiate cervical carcinogenesis, female K14-HPV16 mice (Arbeit et al., 1994) were treated with 17β-estradiol (E2; (Arbeit et al., 1996; Giraudo et al., 2004). Briefly, one-month-old virgin female transgenic (heterozygous K14-HPV16, 1203#1) and nontransgenic (FVB/n) mice were anesthetized with isoflurane, and continuous release pellets that deliver E2 at doses of 0.05 mg over 60 days (Innovative Research of America, Sarasota, Fla., USA) were implanted subcutaneously in the dorsal back skin. Subsequent pellets were implanted at 3 and 5 months of age for a total of 6 months of hormone treatment. K14-HPV16 mice were maintained in the FVB/n background (FVB/n; The Jackson Laboratory). The mice were maintained in accordance with the University of California, San Francisco (UCSF) institutional guidelines governing the care of laboratory mice. The animal experimentation was approved by Animal Research Committees at UCSF or The Burnham Institute.
# (§2) In vivo homing specificity of phage was tested as described (Hoffman, 2004). Briefly, mice bearing tumors were anesthetized and intravenously injected with 5×10^9 pfu of phage. After 7 min, the mice were perfused through the heart with PBS containing 0.5% BSA. The tumor and control organs were dissected from each mouse and the phage were rescued and tittered. For histology analysis, the mice were perfused with 4% PFA 30 min after the injection of phage. Tissues were embedded in Tissue-Tek O.C.T. and 5 μm sections were prepared for phage immunostaining.
# K14-HPV16 skin cancer = assay: In vivo homing to K14-HPV16 skin cancer; parameters: species or system mouse
# Protocol: as §1, §2
# [1] = system: PPC1 orthotopic xenografts; assay: In vivo phage homing to PPC1 orthotopic xenografts; parameters: species or system mouse; conditions: for phage homing to PPC1 orthotopic xenografts (in words): i.v. injected phage
# Protocol: as §1, §2
# [2] = system: LNCaP orthotopic xenografts; assay: In vivo phage homing to LNCaP orthotopic xenografts; parameters: species or system mouse; conditions: for phage homing to LNCaP xenografts (in words): i.v. injected phage
# Protocol: as §1, §2
# [3] = system: DU145 orthotopic xenografts; assay: In vivo phage homing to DU145 orthotopic xenografts; parameters: species or system mouse; conditions: for phage homing to DU145 xenografts (in words): i.v. injected phage
# Protocol: as §1, §2
# PPC1 s.c. xenografts = assay: In vivo phage homing to PPC1 s.c. xenografts; parameters: species or system mouse
# Protocol: as §1
# (§3) In vivo homing specificity of phage was tested as described (Hoffman, 2004). Briefly, mice bearing tumors were anesthetized and intravenously injected with 5×10^9 pfu of phage. […]
# [4] = system: tumor derived cell suspensions (TRAMP); assay: Phage binding to TRAMP tumor derived cell suspensions; format: cell-based, mouse; conditions: phage clones
# Protocol: (§4) An NNK-encoded CX7C library display on T7Select415-1 phage (Novagen) was prepared as previously described (Laakkonen et al., 2002). Phage selection and validation have been described (Hoffman, 2004). A two-step procedure was designed for the selection of peptides targeting the tumor lymphatic vessels of pre-malignant prostate lesions and prostate tumor. First, the phage library was incubated with cells derived from normal prostate to subtract the phage that bind to normal prostate. Second, the anti-podoplanin magnetic beads were used to isolate lymphatic endothelial cells. 2-3 rounds of ex vivo selection and 2-3 rounds of in vivo selections were performed. For the ex vivo selections, cell suspensions were prepared from normal prostates of tumor-free littermates of TRAMP mice, pre-malignant prostates of 14- to 16-week-old TRAMP mice, and tumor tissues of 25- to 28-week-old TRAMP mice. Collagenase IA (1 mg/ml, Sigma) was used to disperse the tissues. About 1×10^7 normal prostate cells were incubated at 4° C. for 3 hrs with […] plaque forming units (pfu) of T7 phage displaying a CX7C peptide library. The samples were centrifuged at 1200 rpm for 10 min, the supernatant (the normal prostate-subtracted phage library) was recovered and then incubated overnight at 4° C. with 5×10^7 cells derived from pre-malignant prostate tissue or prostate tumor. The cells were washed to remove unbound phage, incubated with rat anti-mouse podoplanin for 45 min at 4° C., and washed three times with cold PBS containing 0.5% BSA. Podoplanin-positive cells were then isolated using M450 sheep anti-rat IgG Dynabeads (M450; Dynal, Oslo, Norway). Phage that bound to the podoplanin-positive cell population were rescued and amplified in E. coli. In vivo phage library screening was performed as described (Laakkonen et al., 2002).
# [5] = system: K14-HPV16/E2 cervical lesions; assay: Distribution of fluorescent peptides in K14-HPV16/E2 mice with cervical lesions; format: in vivo, mouse; conditions: labeled peptide i.v.
# Protocol: (§5) The frozen sections were prepared for immunohistological analysis.
# [6] = system: PPC1 tumor-derived cell suspensions; assay: REA phage binding to PPC1 tumor-derived cell suspensions; format: cell-based; conditions: listed as REA-phage
# cultured PPC1 cells = assay: REA phage binding to cultured PPC1 cells; format: cell-based, human; conditions: listed as REA-phage
# [7] = system: K14-HPV16/E2 cervical dysplasia; assay: In vivo phage homing to K14-HPV16/E2 cervical dysplasia (CIN-3); parameters: species or system mouse
# Protocol: as §1, §2
# [8] = system: MMTV-PyMT premalignant lesions; assay: In vivo phage homing to MMTV-PyMT premalignant lesions; parameters: species or system mouse
# Protocol: as §1, §3
# [9] = system: cell suspension derived from pre-malignant prostate lesions; assay: Phage binding to cell suspension derived from pre-malignant prostate lesions; format: cell-based, mouse; conditions: phage clones
# Protocol: as §4
# [10] = system: K14-HPV16/E2 and MMTV-PyMT lesions and tumors; assay: Fluorescent AGR peptide homing to lesions and tumors of K14-HPV16/E2 and MMTV-PyMT mice; format: in vivo, mouse
# Protocol: as §5
# [11] = phage homing in vivo, KRIB xenografts
# [12] = phage homing in vivo, K14-HPV16 skin cancer
# [13] = phage homing in vivo, PPC1 orthotopic xenografts
# [14] = phage homing in vivo, LNCaP orthotopic xenografts
# [15] = phage homing in vivo, DU145 orthotopic xenografts
# [16] = phage homing in vivo, PPC1 s.c. xenografts
# [17] = phage homing in vivo, K14-HPV16/E2 cervical dysplasia
# [18] = phage homing in vivo, MMTV-PyMT premalignant lesions
sequence,measurement,setting,value
CREAGRKAC [homing peptide for prostate tumor lymphatics],phage homing to KRIB xenografts (in words),KRIB xenografts; i.v. injected phage,negative for REA binding
same,Fold over control phage,KRIB xenografts; [11],7^‡ fold
same,Specific Homing,KRIB xenografts; [11],Yes
same,homing to K14-HPV16 skin cancers (in words),"K14-HPV16 skin cancer; i.v. injection, K14-HPV16 mice",negative for REA binding
same,Fold over control phage,K14-HPV16 skin cancer; [12],4 fold
same,Specific Homing,K14-HPV16 skin cancer; [12],No
same,phage homing to PPC1 orthotopic xenografts (in words),[1]; listed as REA phage,homed
same,phage homing to PPC1 orthotopic xenografts (in words),[1]; listed as REA-phage,Significant phage homing
same,Fold over control phage,[1]; [13],25 fold
same,Specific Homing,[1]; [13],Yes
same,phage homing to LNCaP xenografts (in words),[2]; listed as REA phage,homed
same,phage homing to LNCaP xenografts (in words),[2]; listed as REA-phage,Significant phage homing
same,Fold over control phage,[2]; [14],20 fold
same,Specific Homing,[2]; [14],Yes
same,phage homing to DU145 xenografts (in words),[3]; listed as REA phage,homed
same,phage homing to DU145 xenografts (in words),[3]; listed as REA-phage,Significant phage homing
same,Fold over control phage,[3]; [15],14 fold
same,Specific Homing,[3]; [15],Yes
same,phage homing to subcutaneous PPC1 xenografts versus orthotopic (in words),"PPC1 s.c. xenografts; i.v. injected phage, 7 min circulation",homed less efficiently
same,Fold over control phage,PPC1 s.c. xenografts; [16],6 fold
same,Specific Homing,PPC1 s.c. xenografts; [16],No
same,binding to TRAMP tumor derived cell suspensions (in words),[4],robust binding
same,fluorescent peptide in K14-HPV16/E2 cervical lesions/tumors (in words),[5],slightly positive
same,phage binding to PPC1 tumor-derived cell suspensions (in words),[6],binds to cell suspensions derived from PPC1 tumors; also recorded: strongly bound
same,phage binding to cultured PPC1 cells (in words),cultured PPC1 cells,not to cultured PPC1 cells; also recorded: did not bind
CAGRRSAYC [homing peptide for pre-malignant TRAMP prostate lesions],phage homing to K14-HPV16/E2 pre-malignant cervical lesions (in words),[7]; i.v. injected phage,little homing of the phage
same,Fold over control phage,[7]; [17],5 fold
same,Specific Homing,[7]; [17],No
same,phage homing to MMTV-PyMT premalignant lesions (in words),[8]; i.v. injected phage,little homing of the phage
same,Fold over control phage,[8]; [18],2 fold
same,Specific Homing,[8]; [18],No
same,binding to cell suspension from pre-malignant prostate lesions (in words),[9],bound
same,peptide binding to MMTV-PyMT dysplastic breast lesion,[10],weakly positive
same,peptide homing to lesions or malignant tumors in K14-HPV16/E2 and MMTV-PyMT models,[10],no detectable homing of the peptide
